T1: long-form human leptin receptor, OB-Rb (Homo sapiens, UniProt P48357)
T1 construct: expressed in transfected cells
T1 sequence (P48357 22-1165): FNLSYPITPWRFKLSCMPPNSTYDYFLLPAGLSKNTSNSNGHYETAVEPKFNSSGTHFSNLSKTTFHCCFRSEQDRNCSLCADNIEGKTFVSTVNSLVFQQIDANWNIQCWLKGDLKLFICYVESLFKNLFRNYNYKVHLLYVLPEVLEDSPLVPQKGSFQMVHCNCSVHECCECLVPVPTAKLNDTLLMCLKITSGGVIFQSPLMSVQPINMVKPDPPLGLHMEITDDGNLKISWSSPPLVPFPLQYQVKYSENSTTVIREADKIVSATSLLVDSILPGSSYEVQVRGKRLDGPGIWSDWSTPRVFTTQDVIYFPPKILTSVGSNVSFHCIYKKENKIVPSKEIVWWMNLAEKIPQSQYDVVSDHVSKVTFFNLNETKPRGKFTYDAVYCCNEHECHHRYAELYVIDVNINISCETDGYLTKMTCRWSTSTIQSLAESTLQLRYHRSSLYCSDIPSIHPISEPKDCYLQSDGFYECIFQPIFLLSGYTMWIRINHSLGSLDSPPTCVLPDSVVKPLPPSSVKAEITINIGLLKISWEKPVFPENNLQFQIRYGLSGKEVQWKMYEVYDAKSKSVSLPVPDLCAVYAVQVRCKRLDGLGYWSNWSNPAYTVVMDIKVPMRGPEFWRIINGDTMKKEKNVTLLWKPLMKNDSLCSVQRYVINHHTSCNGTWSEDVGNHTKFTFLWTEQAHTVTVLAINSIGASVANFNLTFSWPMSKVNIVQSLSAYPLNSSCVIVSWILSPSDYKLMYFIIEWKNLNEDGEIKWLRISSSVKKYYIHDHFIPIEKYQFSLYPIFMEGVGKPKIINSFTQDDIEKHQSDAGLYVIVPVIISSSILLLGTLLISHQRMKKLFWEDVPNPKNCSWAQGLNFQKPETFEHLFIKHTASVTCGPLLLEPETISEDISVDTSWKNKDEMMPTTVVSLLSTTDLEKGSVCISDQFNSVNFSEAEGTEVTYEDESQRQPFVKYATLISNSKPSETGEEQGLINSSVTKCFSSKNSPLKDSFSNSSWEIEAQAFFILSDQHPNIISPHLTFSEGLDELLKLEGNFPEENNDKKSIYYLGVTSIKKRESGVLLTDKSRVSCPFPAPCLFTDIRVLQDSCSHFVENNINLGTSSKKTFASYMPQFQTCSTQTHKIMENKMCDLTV


Columns and labels:
[1] = molecular target: T1, long-form human leptin receptor, OB-Rb; experiment: 125I-leptin binding to HEK293 cells stably transfected with OB-Rb; conditions: HEK293 cell line stably transfected with OB-Rb; read-out: Kd for leptin and its receptors
Procedure: 4. Measurement of IC50 for human CRP against human leptin: Human leptin was iodinated with Na^125I using the lodogen method. Briefly, 15 μg of human leptin in 100 mM Phosphate buffer pH 7.5 were incubated with 1 mCi of carrier-free Na^125I (2200 Ci/mmol) in a glass tube containing 50 μg Iodogen. After 10 minute incubation at room temperature, the reaction was stopped with 100 μl 0.1% trifluoroacetic acid (TFA). The reaction mixture was immediately purified by reverse-phase HPLC. The separation employed a 5 minute isocratic step at 20% eluant B in A, followed by two consecutive 30 minute linear gradients from 20 to 50%, then from 50 to 60% eluant B in A (where eluant A is water containing 0.1% TFA and eluant B is acetonitrile containing 0.1% TFA) at a flow rate of 1.5 ml/min. The ^125I-labeled leptin (˜2 ng/ml) was pre-incubated with various concentrations of human CRP in 1 ml of μ-MEM for 30 minute before added to the OBR-expressing HEK293 cells. The incubation would last for 3 hours at 4° C. before the media was aspirated and the cells were dissolved in 0.1N NaOH for scintillation counting.
To examine if human CRP interferes with the binding of human leptin to its receptors, we used a HEK293 cell line stably transfected with the long-form human leptin receptor, OB-Rb. The characterization of this cell line has been reported in earlier studies. M. Friedman-Einat et al., 2003, Regul. Pept. […]

ob/ob mice = experiment: Infusion of human CRP and/or human leptin by osmotic pumps into ob/ob mice; assay type: in vivo, mouse
Procedure: 3(a). In vivo assessment of CRP functions: The micro-osmotic pumps (#1007D, DURECT, Cupertino, Calif.) were subcutaneously imbedded in the ob/ob or wild-type mice according to the instructions of the manufacturer. The osmotic pumps were pre-filled with saline, CRP, leptin or leptin plus CRP. Food-intake (24-h), body weight, and body temperature were monitored daily post-surgery. Blood glucose concentrations were measured from the tail-vein blood samples right before and at the end of infusion with a Precision Plus glucose meter (Medisense, Abbot Park, Ill.).
3(b) Assessment of serum leptin insulin, and CRP: Human- and mouse-leptin concentrations were measured with the ELISA kit from CHEMICON (Temecular, Calif.) and R&D Systems (Minneapolis, Minn.), respectively, according to the instructions of the manufacturer. Serum mouse insulin concentrations were determined with an ELISA assay (LINCO Research, St. Charles, Mo.). Human CRP concentrations were also evaluated with an ELISA kit (Alpha Diagnostics International, San Antonio, Tex.).
3(c) Measurement of serum- and tissue-triglycerides: Serum- and tissue-triglycerides were determined with the protocols described in J. N. Huan et al., 2003, J. Biol. Chem. 278, 45638. […]

lean and healthy humans = experiment: Injection of leptin in lean and healthy humans, plasma CRP; assay type: in vivo, human
mice = experiment: Continuous infusion of leptin in mice, plasma SAP; assay type: in vivo, mouse; conditions: elevation of serum leptin through continuous infusion in mice
[2] = system: human primary hepatocytes; experiment: Leptin-stimulated CRP expression in human primary hepatocytes in vitro; assay type: cell-based
leptin = experiment: Immunoprecipitation of mouse SAP with leptin; assay type: binding
[3] = human leptin alone, 6-day continuous infusion

| Kd [1] [nM] | binding of leptin (immunoprecipitation) (leptin) | Molecule | body weight (ob/ob mice; [3]) | food-intake (ob/ob mice; [3]) | blood glucose (ob/ob mice; leptin alone) | hepatic triglyceride (ob/ob mice; leptin alone) | plasma insulin (ob/ob mice; leptin alone) | serum triglyceride (ob/ob mice; leptin alone) | plasma CRP concentrations (lean and healthy humans) | plasma concentrations of SAP (mice) | expression of CRP [2] |
| --- | --- | --- | --- | --- | --- | --- | --- | --- | --- | --- | --- |
| 1 | – | human leptin: recombinant human leptin, adipocyte hormone (SEQ ID NO:4) | produced the expected reduction in food-intake and body weight | produced the expected reduction in food-intake and body weight | lowering | lowering | lowering | lowering | leads to elevation of plasma CRP concentrations | increased plasma concentrations of SAP in mice | stimulates expression of CRP |
| – | leptin binds to mouse SAP | mouse SAP: mouse pentraxin-like serum amyloid P component structurally similar to CRP (protein) QTDLKRKVFVFPRESETDHVKLIPHLEKPLQNFTLCFRTYSDLSRSQSLFSYSVKGRDNELLIYKEKVGEYSLYIGQSKVTVRGMEEYLSPVHLCTTWESSSGIVEFWVNGKPWVKKSLQREYTVKAPPSIVLGQEQDNYGGGFQRSQSFVGEFSDLYMWDYVLTPQDILFVYRDSPVNPNILNWQALNYEINGYVVIRPRVWD | – | – | – | – | – | – | – | – | – |

From patent US7629315B2, “Compositions for blocking the inhibitory effect of human CRP on human leptin” (University of Pittsburgh of the Commonwealth System of …, priority 2005, dated 2009)
